Target: T1, zebrafish CPA6 (zCPA6) (Danio rerio, UniProt E7F2H8)
T1 construct: full-length cDNA in pcDNA3.1, untagged, expressed in HEK293T cells; mature 65 kDa with EGFP
T1 sequence (E7F2H8 133-442): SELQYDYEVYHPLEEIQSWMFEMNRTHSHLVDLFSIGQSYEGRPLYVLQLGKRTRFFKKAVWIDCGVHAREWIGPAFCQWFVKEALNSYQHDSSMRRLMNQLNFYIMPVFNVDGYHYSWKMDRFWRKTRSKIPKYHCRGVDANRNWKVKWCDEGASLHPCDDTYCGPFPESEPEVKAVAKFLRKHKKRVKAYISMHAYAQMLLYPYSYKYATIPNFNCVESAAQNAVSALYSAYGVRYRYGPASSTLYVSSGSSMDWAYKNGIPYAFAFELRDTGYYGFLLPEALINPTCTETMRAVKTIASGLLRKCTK
Assay: decrease in absorbance at […] nm, ECM-bound enzyme of transfected HEK293T cells against untransfected wells
Format: biochemical
Settings: 0.5 mM substrate, 50 mM Tris-HCl pH 7.5, 150 mM NaCl, 37 °C; untagged enzyme

SMILES	decrease in absorbance at 336 nm, ECM-bound enzyme of transfected HEK293T cells
O=C(C=Cc1ccco1)N[C@@H](Cc1ccccc1)C(=O)N[C@@H](Cc1ccccc1)C(=O)O [fa-FF]	fa-FF and fa–RL were most rapidly cleaved
CC(C)C[C@H](NC(=O)[C@H](CCCNC(=N)N)NC(=O)C=Cc1ccco1)C(=O)O [fa-RL, fa–RL]	fa-FF and fa–RL were most rapidly cleaved

— article PMC2945764, “Carboxypeptidase A6 in Zebrafish Development and Implications for VIth Cranial Nerve Pathfinding” (PLoS ONE, 2010)
